# Experimental data published in ChEMBL document CHEMBL1201862, “PubChem BioAssay data set” (2004).
#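 A five-concentration, 48-hour dose response in 96-well plates underlies each endpoint, interpolated linearly between surrounding concentrations. GI50 is the concentration that inhibits growth by half.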 Calls of active or inactive are those of the source. Cut-off read from the data, not from the text of the source: active = GI50 up to about 1.1 µM and inactive = higher.
# Experiments:
# Assay in all cases: NCI tumour cell line growth inhibition, 48 h
# 786-0 = test system: 786-0
# A498 = test system: A498
# A549 = test system: A549
# ACHN = test system: ACHN
# BT-549 = test system: BT-549
# CAKI-1 = test system: CAKI-1
# CCRF-CEM = test system: CCRF-CEM
# COLO 205 = test system: COLO 205
# DU-145 = test system: DU-145
# EKVX = test system: EKVX
# HCC 2998 = test system: HCC 2998
# HCT-116 = test system: HCT-116
# HCT-15 = test system: HCT-15
# HL-60 = test system: HL-60
# HOP-62 = test system: HOP-62
# HOP-92 = test system: HOP-92
# HT-29 = test system: HT-29
# Hs-578T = test system: Hs-578T
# IGROV-1 = test system: IGROV-1
# K562 = test system: K562
# KM12 = test system: KM12
# LOX IMVI = test system: LOX IMVI
# M14 = test system: M14
# MCF7 = test system: MCF7
# MDA-MB-231 = test system: MDA-MB-231
# MDA-MB-435 = test system: MDA-MB-435
# MDA-N = test system: MDA-N
# MOLT-4 = test system: MOLT-4
# Malme-3M = test system: Malme-3M
# NCI-H226 = test system: NCI-H226
# NCI-H23 = test system: NCI-H23
# NCI-H460 = test system: NCI-H460
# NCI-H522 = test system: NCI-H522
# NCI/ADR-RES = test system: NCI/ADR-RES
# OVCAR-3 = test system: OVCAR-3
# OVCAR-4 = test system: OVCAR-4
# OVCAR-5 = test system: OVCAR-5
# OVCAR-8 = test system: OVCAR-8
# PC-3 = test system: PC-3
# RPMI-8226 = test system: RPMI-8226
# SF-268 = test system: SF-268
# SF-295 = test system: SF-295
# SF-539 = test system: SF-539
# SK-MEL-28 = test system: SK-MEL-28
# SK-MEL-2 = test system: SK-MEL-2
# SK-MEL-5 = test system: SK-MEL-5
# SK-OV-3 = test system: SK-OV-3
# SN12C = test system: SN12C
# SNB-19 = test system: SNB-19
# SR = test system: SR
# T47D = test system: T47D
# TK-10 = test system: TK-10
# U-251 = test system: U-251
# UACC-257 = test system: UACC-257
# UACC-62 = test system: UACC-62
# UO-31 = test system: UO-31
# RXF 393 = test system: RXF 393
# SNB-75 = test system: SNB-75
# SW-620 = test system: SW-620
structure (smiles),measurement,setting,value
O=C(c1ccccc1)c1c(-c2ccccc2)n(-c2ccccc2)[nH]c(=O)c1=O,GI50,786-0,31.2 µM (inactive)
same,GI50,A498,> 100 µM (inactive)
same,GI50,A549,> 100 µM (inactive)
same,GI50,ACHN,22.2 µM (inactive)
same,GI50,BT-549,13.7 µM (inactive)
same,GI50,CAKI-1,37.6 µM (inactive)
same,GI50,CCRF-CEM,15.5 µM (inactive)
same,GI50,COLO 205,75.2 µM (inactive)
same,GI50,DU-145,> 100 µM (inactive)
same,GI50,EKVX,55.5 µM (inactive)
same,GI50,HCC 2998,> 100 µM (inactive)
same,GI50,HCT-116,> 100 µM (inactive)
same,GI50,HCT-15,78.2 µM
same,GI50,HL-60,32.2 µM (inactive)
same,GI50,HOP-62,28.8 µM (inactive)
same,GI50,HOP-92,31.2 µM (inactive)
same,GI50,HT-29,> 100 µM (inactive)
same,GI50,Hs-578T,21.6 µM (inactive)
same,GI50,IGROV-1,54.5 µM (inactive)
same,GI50,K562,14.8 µM (inactive)
same,GI50,KM12,54.3 µM (inactive)
same,GI50,LOX IMVI,25.6 µM (inactive)
same,GI50,M14,> 100 µM (inactive)
same,GI50,MCF7,46.7 µM (inactive)
same,GI50,MDA-MB-231,20.2 µM (inactive)
same,GI50,MDA-MB-435,28.2 µM (inactive)
same,GI50,MDA-N,50.1 µM (inactive)
same,GI50,MOLT-4,28.2 µM (inactive)
same,GI50,Malme-3M,22.5 µM (inactive)
same,GI50,NCI-H226,16.5 µM (inactive)
same,GI50,NCI-H23,75 µM (inactive)
same,GI50,NCI-H460,44.7 µM (inactive)
same,GI50,NCI-H522,0.361 µM (active)
same,GI50,NCI/ADR-RES,62.4 µM (inactive)
same,GI50,OVCAR-3,37.2 µM (inactive)
same,GI50,OVCAR-4,32.6 µM (inactive)
same,GI50,OVCAR-5,> 100 µM (inactive)
same,GI50,OVCAR-8,46 µM (inactive)
same,GI50,PC-3,18.9 µM (inactive)
same,GI50,RPMI-8226,27.5 µM (inactive)
same,GI50,SF-268,48.6 µM (inactive)
same,GI50,SF-295,28.2 µM (inactive)
same,GI50,SF-539,20.2 µM (inactive)
same,GI50,SK-MEL-28,> 100 µM (inactive)
same,GI50,SK-MEL-2,24 µM (inactive)
same,GI50,SK-MEL-5,> 100 µM (inactive)
same,GI50,SK-OV-3,34.2 µM (inactive)
same,GI50,SN12C,69 µM (inactive)
same,GI50,SNB-19,88.3 µM (inactive)
same,GI50,SR,23.8 µM (inactive)
same,GI50,T47D,> 100 µM (inactive)
same,GI50,TK-10,42.5 µM (inactive)
same,GI50,U-251,44.5 µM (inactive)
same,GI50,UACC-257,70.1 µM (inactive)
same,GI50,UACC-62,12.3 µM (inactive)
same,GI50,UO-31,48.4 µM (inactive)
COc1cc2c(cc1C1COc3cc4occc4cc3C1=O)OCO2 (configuration not stated),GI50,786-0,> 100 µM (inactive)
same,GI50,A498,31.8 µM (inactive)
same,GI50,A549,7.11 µM (inactive)
same,GI50,ACHN,> 100 µM (inactive)
same,GI50,BT-549,> 100 µM (inactive)
same,GI50,CAKI-1,67 µM (inactive)
same,GI50,CCRF-CEM,> 100 µM (inactive)
same,GI50,COLO 205,> 100 µM (inactive)
same,GI50,DU-145,> 100 µM (inactive)
same,GI50,EKVX,87.3 µM (inactive)
same,GI50,HCC 2998,98.6 µM (inactive)
same,GI50,HCT-116,> 100 µM (inactive)
same,GI50,HCT-15,35.9 µM
same,GI50,HOP-62,40.3 µM (inactive)
same,GI50,HOP-92,91 µM (inactive)
same,GI50,HT-29,41.2 µM (inactive)
same,GI50,Hs-578T,28.1 µM (inactive)
same,GI50,IGROV-1,63 µM (inactive)
same,GI50,KM12,> 100 µM (inactive)
same,GI50,LOX IMVI,> 100 µM (inactive)
same,GI50,M14,> 100 µM (inactive)
same,GI50,MCF7,17.4 µM (inactive)
same,GI50,MDA-MB-231,> 100 µM (inactive)
same,GI50,MDA-MB-435,> 100 µM (inactive)
same,GI50,MDA-N,> 100 µM (inactive)
same,GI50,MOLT-4,4.05 µM (inactive)
same,GI50,Malme-3M,89.1 µM (inactive)
same,GI50,NCI-H226,25.7 µM (inactive)
same,GI50,NCI-H23,> 100 µM (inactive)
same,GI50,NCI-H522,> 100 µM (inactive)
same,GI50,NCI/ADR-RES,17.1 µM (inactive)
same,GI50,OVCAR-3,> 100 µM (inactive)
same,GI50,OVCAR-4,2.81 µM (inactive)
same,GI50,OVCAR-5,> 100 µM (inactive)
same,GI50,OVCAR-8,21.1 µM (inactive)
same,GI50,PC-3,> 100 µM (inactive)
same,GI50,RPMI-8226,2.67 µM (inactive)
same,GI50,RXF 393,36.3 µM (inactive)
same,GI50,SF-268,55.1 µM (inactive)
same,GI50,SF-295,53.8 µM (inactive)
same,GI50,SF-539,35.6 µM (inactive)
same,GI50,SK-MEL-28,40.1 µM (inactive)
same,GI50,SK-MEL-2,> 100 µM (inactive)
same,GI50,SK-MEL-5,> 100 µM (inactive)
same,GI50,SK-OV-3,34.4 µM (inactive)
same,GI50,SN12C,> 100 µM (inactive)
same,GI50,SNB-19,30.1 µM (inactive)
same,GI50,SNB-75,> 100 µM (inactive)
same,GI50,SR,49.1 µM (inactive)
same,GI50,SW-620,> 100 µM (inactive)
same,GI50,T47D,> 100 µM (inactive)
same,GI50,TK-10,29.4 µM (inactive)
same,GI50,U-251,76 µM (inactive)
same,GI50,UACC-257,> 100 µM (inactive)
same,GI50,UACC-62,> 100 µM (inactive)
same,GI50,UO-31,> 100 µM (inactive)
